Data from ChEMBL document CHEMBL3853357, “Discovery of a Series of 5,11-Dihydro-6H-benzo[e]pyrimido[5,4-b][1,4]diazepin-6-ones as Selective PI3K-δ/γ Inhibitors” (ACS Med Chem Lett, 2016).
Calls of active or inactive are those of the source. The calls are words filed in the database; no cut-off is given here.

How the values were obtained:
[1] = molecular target: Phosphatidylinositol 4,5-bisphosphate 3-kinase catalytic subunit gamma isoform (Homo sapiens, UniProt P48736); assay: Inhibition of human PI3Kgamma (S144 to A1102 residues) expressed in mammalian expression system incubated for 60 mins by ADAPTA assay
Phosphatidylinositol 4,5-bisphosphate 3-kinase catalytic subunit gamma isoform, sequence (P48736 whole entry, the tested form may be a part, canonical isoform): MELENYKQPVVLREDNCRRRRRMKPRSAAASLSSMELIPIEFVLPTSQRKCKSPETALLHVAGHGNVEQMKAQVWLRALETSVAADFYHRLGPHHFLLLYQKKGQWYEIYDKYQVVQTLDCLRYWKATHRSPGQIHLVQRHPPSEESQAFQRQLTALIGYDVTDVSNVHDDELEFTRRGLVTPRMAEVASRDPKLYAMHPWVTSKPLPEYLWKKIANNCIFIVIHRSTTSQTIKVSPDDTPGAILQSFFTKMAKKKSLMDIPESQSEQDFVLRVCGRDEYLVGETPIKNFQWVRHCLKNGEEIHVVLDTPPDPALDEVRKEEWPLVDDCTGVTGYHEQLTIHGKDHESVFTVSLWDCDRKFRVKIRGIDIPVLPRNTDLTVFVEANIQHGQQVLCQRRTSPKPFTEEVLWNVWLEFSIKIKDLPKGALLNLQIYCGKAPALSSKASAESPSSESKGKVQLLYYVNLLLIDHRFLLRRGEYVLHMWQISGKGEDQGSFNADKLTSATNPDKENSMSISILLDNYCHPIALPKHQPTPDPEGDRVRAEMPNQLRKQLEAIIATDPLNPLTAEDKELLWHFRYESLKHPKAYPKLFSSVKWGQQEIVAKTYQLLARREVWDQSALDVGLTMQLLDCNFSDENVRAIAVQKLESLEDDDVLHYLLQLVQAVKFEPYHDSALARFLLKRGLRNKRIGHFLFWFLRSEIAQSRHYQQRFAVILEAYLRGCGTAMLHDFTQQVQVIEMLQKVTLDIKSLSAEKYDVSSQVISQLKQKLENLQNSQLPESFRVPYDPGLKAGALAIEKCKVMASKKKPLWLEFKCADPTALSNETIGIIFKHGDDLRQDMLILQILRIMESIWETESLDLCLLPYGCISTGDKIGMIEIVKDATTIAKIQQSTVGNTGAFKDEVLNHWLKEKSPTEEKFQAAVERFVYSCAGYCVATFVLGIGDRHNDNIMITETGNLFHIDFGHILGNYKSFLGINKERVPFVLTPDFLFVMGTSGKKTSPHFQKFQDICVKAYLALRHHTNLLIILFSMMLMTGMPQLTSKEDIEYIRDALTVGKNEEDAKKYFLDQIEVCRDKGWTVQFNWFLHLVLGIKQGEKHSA

[2] = molecular target: T1, Phosphatidylinositol 4,5-bisphosphate 3-kinase catalytic subunit delta isoform (Homo sapiens, UniProt O00329); assay: Inhibition of human PI3Kdelta (R108 to Q1044 residues) expressed in mammalian expression system incubated for 60 mins by ADAPTA assay
T1 sequence (O00329 whole entry): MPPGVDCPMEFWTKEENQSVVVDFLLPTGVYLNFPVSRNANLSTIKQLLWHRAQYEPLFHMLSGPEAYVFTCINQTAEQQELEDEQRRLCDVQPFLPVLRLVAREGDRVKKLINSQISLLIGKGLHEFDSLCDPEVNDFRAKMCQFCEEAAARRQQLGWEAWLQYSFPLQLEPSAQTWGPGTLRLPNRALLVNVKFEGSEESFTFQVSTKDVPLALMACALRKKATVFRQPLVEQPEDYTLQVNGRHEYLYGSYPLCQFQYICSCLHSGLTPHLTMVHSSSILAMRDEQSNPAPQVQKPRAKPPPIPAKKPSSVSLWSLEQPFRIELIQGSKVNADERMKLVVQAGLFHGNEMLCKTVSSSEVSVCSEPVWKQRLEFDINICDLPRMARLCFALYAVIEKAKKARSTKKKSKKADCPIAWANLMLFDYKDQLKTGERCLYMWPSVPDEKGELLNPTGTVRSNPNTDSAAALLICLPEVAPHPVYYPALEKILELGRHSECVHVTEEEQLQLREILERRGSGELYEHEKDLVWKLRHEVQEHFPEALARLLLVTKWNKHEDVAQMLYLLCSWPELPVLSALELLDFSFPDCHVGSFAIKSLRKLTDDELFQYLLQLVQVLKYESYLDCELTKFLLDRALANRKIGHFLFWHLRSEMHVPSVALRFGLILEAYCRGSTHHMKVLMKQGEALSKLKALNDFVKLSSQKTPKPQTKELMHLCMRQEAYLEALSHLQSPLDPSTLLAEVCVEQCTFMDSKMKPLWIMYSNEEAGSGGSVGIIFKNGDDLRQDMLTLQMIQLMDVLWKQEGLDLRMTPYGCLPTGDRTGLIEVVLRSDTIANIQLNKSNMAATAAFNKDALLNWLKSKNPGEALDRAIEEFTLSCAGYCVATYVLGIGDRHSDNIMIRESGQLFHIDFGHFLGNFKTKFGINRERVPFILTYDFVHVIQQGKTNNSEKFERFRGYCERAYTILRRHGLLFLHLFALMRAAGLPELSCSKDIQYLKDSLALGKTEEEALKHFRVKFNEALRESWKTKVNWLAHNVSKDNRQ

Aurora kinase A = molecular target: T2, Aurora kinase A (Homo sapiens, UniProt O14965); assay: Inhibition of human Aurora kinase A (E122 to K401 residues) expressed in mammalian expression system by Z'LYTE assay
T2 sequence (O14965 whole entry): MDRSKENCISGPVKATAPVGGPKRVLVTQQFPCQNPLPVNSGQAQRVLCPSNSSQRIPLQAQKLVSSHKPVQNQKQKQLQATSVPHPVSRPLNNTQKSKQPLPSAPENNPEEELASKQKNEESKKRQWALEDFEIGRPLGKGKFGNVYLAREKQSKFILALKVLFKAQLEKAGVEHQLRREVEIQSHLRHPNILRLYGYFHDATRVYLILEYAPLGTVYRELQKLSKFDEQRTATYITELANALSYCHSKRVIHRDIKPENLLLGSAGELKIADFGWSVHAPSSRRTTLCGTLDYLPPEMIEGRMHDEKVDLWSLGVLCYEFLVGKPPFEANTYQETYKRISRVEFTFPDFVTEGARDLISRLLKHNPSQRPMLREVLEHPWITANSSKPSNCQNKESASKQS

Aurora kinase B = Aurora kinase B (Homo sapiens, UniProt Q96GD4); assay: Inhibition of human Aurora kinase B (D25 to A303 residues) expressed in mammalian expression system by Z'LYTE assay
Aurora kinase B, sequence (Q96GD4 whole entry, the tested form may be a part): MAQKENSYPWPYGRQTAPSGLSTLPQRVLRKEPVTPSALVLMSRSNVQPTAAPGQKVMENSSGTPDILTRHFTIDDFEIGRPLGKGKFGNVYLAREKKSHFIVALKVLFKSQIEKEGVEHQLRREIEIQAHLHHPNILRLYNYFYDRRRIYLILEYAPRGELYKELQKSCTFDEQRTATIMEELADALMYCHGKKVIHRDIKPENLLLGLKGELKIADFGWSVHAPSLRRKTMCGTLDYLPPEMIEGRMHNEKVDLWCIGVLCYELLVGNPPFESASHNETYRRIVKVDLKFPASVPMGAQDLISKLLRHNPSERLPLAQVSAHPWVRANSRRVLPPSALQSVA

[3] = Antiproliferative activity against human Jurkat cells after 3 days by CellTiter-Glo assay; type: functional, cell-based; conditions: 72 h
[4] = Antiproliferative activity against human MOLT4 cells after 3 days by CellTiter-Glo assay; type: functional, cell-based; conditions: MOLT-4, 72 h
[5] = molecular target: T3, Phosphatidylinositol 5-phosphate 4-kinase type-2 gamma (Homo sapiens) (UniProt Q8TBX8); assay: Inhibition of human PIP5K2C (M1 to A421 residues) expressed at 1 uM
T3 sequence (whole entry): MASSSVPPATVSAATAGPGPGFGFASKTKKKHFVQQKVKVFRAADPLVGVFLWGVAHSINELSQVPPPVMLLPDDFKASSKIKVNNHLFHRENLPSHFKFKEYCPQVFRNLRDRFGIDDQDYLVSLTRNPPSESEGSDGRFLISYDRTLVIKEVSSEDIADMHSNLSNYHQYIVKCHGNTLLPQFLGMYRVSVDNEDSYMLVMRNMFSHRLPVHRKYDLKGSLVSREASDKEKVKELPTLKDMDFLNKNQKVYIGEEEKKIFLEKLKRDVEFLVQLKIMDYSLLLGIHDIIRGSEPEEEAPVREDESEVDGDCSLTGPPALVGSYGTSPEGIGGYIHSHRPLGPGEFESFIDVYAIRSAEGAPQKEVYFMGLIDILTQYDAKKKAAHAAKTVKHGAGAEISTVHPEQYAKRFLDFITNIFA

[6] = (§1) Antiproliferative activity against patient-derived IgM-stimulated CLL cells after 3 days by CellTiter-Glo assay; type: functional, cell-based; conditions: Homo sapiens, 72 h
[7] = Antiproliferative activity against human Loucy cells after 3 days by CellTiter-Glo assay; type: functional, cell-based; conditions: 72 h
CLL = assay: as §1; type: functional, cell-based; conditions: Homo sapiens
[8] = Antiproliferative activity against human MOLM14 cells after 3 days by CellTiter-Glo assay; type: functional, cell-based; conditions: MOLM-14, 72 h
[9] = Antiproliferative activity against human MV4-11 cells after 3 days by CellTiter-Glo assay; type: functional, cell-based; conditions: MV4-11, 72 h
[10] = molecular target: Phosphatidylinositol 4,5-bisphosphate 3-kinase catalytic subunit beta isoform (Homo sapiens) (UniProt P42338); assay: Inhibition of p110beta in HMEC assessed as reduction in S6RP phosphorylation at Ser-235/236 residue at 0.01 to 1 uM after 1 hr by Western blot analysis
Phosphatidylinositol 4,5-bisphosphate 3-kinase catalytic subunit beta isoform (Homo sapiens), sequence (P42338 whole entry, looked up, canonical isoform): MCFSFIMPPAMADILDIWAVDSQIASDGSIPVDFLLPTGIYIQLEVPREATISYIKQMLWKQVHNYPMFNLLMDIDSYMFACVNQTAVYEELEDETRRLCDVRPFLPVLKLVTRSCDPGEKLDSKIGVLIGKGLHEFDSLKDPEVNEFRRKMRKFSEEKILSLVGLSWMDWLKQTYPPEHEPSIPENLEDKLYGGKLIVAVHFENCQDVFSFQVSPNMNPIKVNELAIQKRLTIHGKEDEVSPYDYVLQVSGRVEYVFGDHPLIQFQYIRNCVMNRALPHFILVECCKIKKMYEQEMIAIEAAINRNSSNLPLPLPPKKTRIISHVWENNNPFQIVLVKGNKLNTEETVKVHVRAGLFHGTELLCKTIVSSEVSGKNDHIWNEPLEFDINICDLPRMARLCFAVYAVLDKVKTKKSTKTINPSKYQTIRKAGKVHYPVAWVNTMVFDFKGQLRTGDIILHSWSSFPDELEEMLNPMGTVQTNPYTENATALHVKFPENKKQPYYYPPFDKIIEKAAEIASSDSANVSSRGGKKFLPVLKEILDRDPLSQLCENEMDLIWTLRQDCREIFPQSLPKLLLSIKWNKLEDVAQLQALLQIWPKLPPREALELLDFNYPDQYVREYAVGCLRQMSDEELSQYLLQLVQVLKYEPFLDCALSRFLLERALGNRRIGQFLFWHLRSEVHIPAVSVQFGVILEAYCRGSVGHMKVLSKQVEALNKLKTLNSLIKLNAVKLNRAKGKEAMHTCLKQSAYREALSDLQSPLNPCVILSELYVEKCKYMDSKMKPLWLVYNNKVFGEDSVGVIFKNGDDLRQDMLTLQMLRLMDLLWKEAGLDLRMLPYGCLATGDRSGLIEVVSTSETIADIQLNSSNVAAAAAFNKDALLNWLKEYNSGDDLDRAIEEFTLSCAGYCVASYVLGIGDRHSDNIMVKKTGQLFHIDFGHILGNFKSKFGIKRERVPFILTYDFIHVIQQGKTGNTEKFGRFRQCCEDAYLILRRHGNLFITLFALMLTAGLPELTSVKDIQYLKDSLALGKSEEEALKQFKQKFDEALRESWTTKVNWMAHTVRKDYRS

[11] = molecular target: Phosphatidylinositol 4,5-bisphosphate 3-kinase catalytic subunit beta isoform (Homo sapiens) (UniProt P42338); assay: Inhibition of p110beta in HMEC assessed as reduction in Akt phosphorylation at Thr-308 residue at 0.01 to 1 uM after 1 hr by Western blot analysis
[12] = molecular target: Phosphatidylinositol 4,5-bisphosphate 3-kinase catalytic subunit beta isoform (Homo sapiens) (UniProt P42338); assay: Inhibition of p110beta in HMEC assessed as reduction in Akt phosphorylation at Ser-473 residue at 0.01 to 1 uM after 1 hr by Western blot analysis

| Compound | IC50 [1] [nM] | IC50 [2] [nM] | also measured |
| --- | --- | --- | --- |
| C=CC(=O)Nc1ccc(NS(=O)(=O)c2ccc(Nc3ncc4c(n3)N(C)c3ccc(C)cc3C(=O)N4C)cc2)cc1 | 310 | 96 | – |
| Cc1ccc2c(c1)C(=O)N(C)c1cnc(Nc3cccc(S(N)(=O)=O)c3)nc1N2C | 110 | 76 | – |
| Cc1ccc2c(c1)C(=O)N(C)c1cnc(Nc3ccc(S(=O)(=O)N4CCN(C)CC4)cc3)nc1N2C | 3300 | 2600 | – |
| Cc1ccc2c(c1)C(=O)N(C)c1cnc(Nc3cccc(S(=O)(=O)N4CCN(C)CC4)c3)nc1N2C | 560 | 51 | – |
| C=CC(=O)N1CCN(S(=O)(=O)c2ccc(Nc3ncc4c(n3)N(C)c3ccc(C)cc3C(=O)N4C)cc2)CC1 | 110 | 230 | – |
| Cc1cc(S(N)(=O)=O)ccc1Nc1ncc2c(n1)N(C)c1ccccc1C(=O)N2C | 2400 | 820 | IC50 (Aurora kinase A): 4900 nM; IC50 (Aurora kinase B): 9400 nM |
| C=CC(=O)NC1CCN(S(=O)(=O)c2cccc(Nc3ncc4c(n3)N(C)c3ccc(C)cc3C(=O)N4C)c2)CC1 | 120 | 20 | IC50 (Aurora kinase A): 350 nM |
| CC[C@H](Nc1ncnc2[nH]cnc12)c1nc2cccc(F)c2c(=O)n1-c1ccccc1 [IDELALISIB] | – | – | IC50 [6]: > 10000 nM |
| C[C@H](Nc1ncnc2nc[nH]c12)c1cc2cccc(Cl)c2c(=O)n1-c1ccccc1 [DUVELISIB] | – | – | IC50 [7]: 980 nM; IC50 [6]: > 10000 nM; IC50 [8]: 1200 nM; IC50 [9]: 4400 nM; inhibition [10]: Active; IC50 [3]: 1900 nM; IC50 [4]: 2300 nM; inhibition [11]: Active; inhibition [12]: Active |
| C=CC(=O)Nc1cccc(NS(=O)(=O)c2ccc(Nc3ncc4c(n3)N(C)c3ccc(C)cc3C(=O)N4C)cc2)c1 | 340 | 440 | – |
| C=CC(=O)Nc1cccc(NS(=O)(=O)c2cccc(Nc3ncc4c(n3)N(C)c3ccc(C)cc3C(=O)N4C)c2)c1 | 330 | 39 | – |

More lines, main results first:

| IC50 [1] [nM] | IC50 [2] [nM] | Compound | also measured |
| --- | --- | --- | --- |
| 49 | 120 | C=CC(=O)NC1CCN(S(=O)(=O)c2ccc(Nc3ncc4c(n3)N(C)c3ccc(C)cc3C(=O)N4C)cc2)CC1 | – |
| 4.3 | 4.1 | CN1C(=O)c2ccccc2N(C)c2nc(Nc3cccc(S(N)(=O)=O)c3)ncc21 | IC50 (Aurora kinase A): 2.1 nM; IC50 (Aurora kinase B): 4.6 nM |
| 15 | 29 | C=CC(=O)Nc1ccc(NS(=O)(=O)c2cccc(Nc3ncc4c(n3)N(C)c3ccc(C)cc3C(=O)N4C)c2)cc1 | – |
| 2.8 | 1.5 | C=CC(=O)N1CCN(S(=O)(=O)c2cccc(Nc3ncc4c(n3)N(C)c3ccc(C)cc3C(=O)N4C)c2)CC1 | IC50 [3]: 166 nM; IC50 [4]: 33 nM; inhibition [5]: Active |
| 20 | 30 | Cc1ccc2c(c1)C(=O)N(C)c1cnc(Nc3ccc(S(N)(=O)=O)cc3)nc1N2C | IC50 (Aurora kinase A): 16 nM; IC50 (Aurora kinase B): 4.2 nM |
| 58 | 41 | Cc1ccc2c(c1)C(=O)N(C)c1cnc(Nc3ccc(S(=O)(=O)N4CCC(O)CC4)cc3)nc1N2C | – |
| 15 | 49 | CN1C(=O)c2ccccc2N(C)c2nc(Nc3ccc(S(N)(=O)=O)cc3)ncc21 | IC50 (Aurora kinase A): 4.8 nM; IC50 (Aurora kinase B): 13 nM |
| 11 | 1.7 | CCC(=O)N1CCN(S(=O)(=O)c2cccc(Nc3ncc4c(n3)N(C)c3ccc(C)cc3C(=O)N4C)c2)CC1 | IC50 [7]: 720 nM; Activity (CLL): Dose-dependent effect; IC50 [6]: 3000 nM; IC50 [8]: 610 nM; IC50 [9]: 960 nM; IC50 [3]: 1600 nM; IC50 [4]: 1200 nM |
| 6.5 | 2.1 | Cc1ccc2c(c1)C(=O)N(C)c1cnc(Nc3cccc(S(=O)(=O)N4CCC(O)CC4)c3)nc1N2C | IC50 [7]: 350 nM; IC50 [6]: > 10000 nM; IC50 [8]: 1000 nM; IC50 [9]: 620 nM; IC50 [3]: 1400 nM; IC50 [4]: 1300 nM |
